Reference: patent US10004701B2, “Methods and compositions for treating infection” (UNIVERSITY OF ROCHESTER, priority 2012, dated 2018)
Counter-ions that a name gives are not always drawn. Like-named read-outs stand apart in the source and are kept apart here.

What was measured:
Assay in all cases: AK assay 384-well format, Prestwick library screening
[1] = system: E. faecium; assay type: cell-based, Enterococcus faecium; conditions: Enterococcus faecium, 3 h, 50 μM final drug concentration
[2] = system: S. aureus strain USA300-0114; assay type: cell-based, Staphylococcus aureus; conditions: Staphylococcus aureus, USA300, 3 h, 50 μM final drug concentration
[3] = system: K. pneumoniae; assay type: cell-based, Klebsiella pneumoniae; conditions: Klebsiella pneumoniae, 3 h, 50 μM final drug concentration
[4] = system: A. baumannii strain 98-37-09; assay type: cell-based, Acinetobacter baumannii; conditions: Acinetobacter baumannii, 983709, 3 h, 50 μM final drug concentration
[5] = system: P. aeruginosa; assay type: cell-based, Pseudomonas aeruginosa; conditions: Pseudomonas aeruginosa, 3 h, 50 μM final drug concentration
[6] = system: E. cloacae; assay type: cell-based, Enterobacter cloacae; conditions: Enterobacter cloacae, 3 h, 50 μM final drug concentration
[7] = system: E. coli; assay type: cell-based, Escherichia coli; conditions: Escherichia coli, 3 h, 50 μM final drug concentration
[8] = planktonic, cutoff for positive 3-fold increase, read-out: AK-based Prestwick Library Screening Results, E. faecium (fold increase in extracellular AK activity)
[9] = planktonic, cutoff for positive 3-fold increase, read-out: AK-based Prestwick Library Screening Results, S. aureus (fold increase in extracellular AK activity)
[10] = planktonic, cutoff for positive 3-fold increase, read-out: AK-based Prestwick Library Screening Results, K. pneumoniae (fold increase in extracellular AK activity)
[11] = planktonic, cutoff for positive 3-fold increase, read-out: AK-based Prestwick Library Screening Results, A. baumannii (fold increase in extracellular AK activity)
[12] = planktonic, cutoff for positive 3-fold increase, read-out: AK-based Prestwick Library Screening Results, P. aeruginosa (fold increase in extracellular AK activity)
[13] = planktonic, cutoff for positive 3-fold increase, read-out: AK-based Prestwick Library Screening Results, E. cloacae (fold increase in extracellular AK activity)
[14] = planktonic, cutoff for positive 3-fold increase, read-out: AK-based Prestwick Library Screening Results, E. coli (fold increase in extracellular AK activity)
[15] = cutoff for positive-scoring molecules 3-fold increase, read-out: AK-based Prestwick Library Screening Results, E. faecium (fold increase in extracellular AK activity)
[16] = cutoff for positive-scoring molecules 3-fold increase, read-out: AK-based Prestwick Library Screening Results, S. aureus (fold increase in extracellular AK activity)
[17] = cutoff for positive-scoring molecules 3-fold increase, read-out: AK-based Prestwick Library Screening Results, K. pneumoniae (fold increase in extracellular AK activity)
[18] = cutoff for positive-scoring molecules 3-fold increase, read-out: AK-based Prestwick Library Screening Results, A. baumannii (fold increase in extracellular AK activity)
[19] = cutoff for positive-scoring molecules 3-fold increase, read-out: AK-based Prestwick Library Screening Results, P. aeruginosa (fold increase in extracellular AK activity)
[20] = cutoff for positive-scoring molecules 3-fold increase, read-out: AK-based Prestwick Library Screening Results, E. cloacae (fold increase in extracellular AK activity)
[21] = cutoff for positive-scoring molecules 3-fold increase, read-out: AK-based Prestwick Library Screening Results, E. coli (fold increase in extracellular AK activity)
[22] = planktonic E. faecium, positive cutoff 3-fold increase, read-out: AK-based Prestwick library screening result, E. faecium (fold increase in extracellular AK activity)
[23] = planktonic S. aureus, positive cutoff 3-fold increase, read-out: AK-based Prestwick library screening result, S. aureus (fold increase in extracellular AK activity)
[24] = planktonic K. pneumoniae, positive cutoff 3-fold increase, read-out: AK-based Prestwick library screening result, K. pneumoniae (fold increase in extracellular AK activity)
[25] = planktonic A. baumannii, positive cutoff 3-fold increase, read-out: AK-based Prestwick library screening result, A. baumannii (fold increase in extracellular AK activity)
[26] = planktonic P. aeruginosa, positive cutoff 3-fold increase, read-out: AK-based Prestwick library screening result, P. aeruginosa (fold increase in extracellular AK activity)
[27] = planktonic E. cloacae, positive cutoff 3-fold increase, read-out: AK-based Prestwick library screening result, E. cloacae (fold increase in extracellular AK activity)
[28] = planktonic E. coli, positive cutoff 3-fold increase, read-out: AK-based Prestwick library screening result, E. coli (fold increase in extracellular AK activity)
[29] = 384-well format, cutoff for positive-scoring molecules 3-fold increase, read-out: AK-based Prestwick Library Screening Results, E. faecium (increase in extracellular AK activity)
[30] = 384-well format, cutoff for positive-scoring molecules 3-fold increase, read-out: AK-based Prestwick Library Screening Results, S. aureus (increase in extracellular AK activity)
[31] = 384-well format, cutoff for positive-scoring molecules 3-fold increase, read-out: AK-based Prestwick Library Screening Results, K. pneumoniae (increase in extracellular AK activity)
[32] = 384-well format, cutoff for positive-scoring molecules 3-fold increase, read-out: AK-based Prestwick Library Screening Results, A. baumannii (increase in extracellular AK activity)
[33] = 384-well format, cutoff for positive-scoring molecules 3-fold increase, read-out: AK-based Prestwick Library Screening Results, P. aeruginosa (increase in extracellular AK activity)
[34] = 384-well format, cutoff for positive-scoring molecules 3-fold increase, read-out: AK-based Prestwick Library Screening Results, E. cloacae (increase in extracellular AK activity)
[35] = 384-well format, cutoff for positive-scoring molecules 3-fold increase, read-out: AK-based Prestwick Library Screening Results, E. coli (increase in extracellular AK activity)

Cc1ccc(S(=O)(=O)NC(=O)NN2CC3CCCC3C2)cc1 (stereo not shown) [Gliclazide]
fold induction at 50 µM [1, 8]: 1
fold induction at 50 µM [2, 9]: 1
fold induction at 50 µM [3, 10]: 1.2
fold induction at 50 µM [4, 11]: 1.3
fold induction at 50 µM [5, 12]: 1.2
fold induction at 50 µM [6, 13]: 1.8
fold induction at 50 µM [7, 14]: 1.2

Clc1ccc(C(Cn2ccnc2)OCc2csc3c(Cl)cccc23)c(Cl)c1 (stereo not shown) [Sertaconazole nitrate]
fold induction at 50 µM [1, 15]: 2.8
fold induction at 50 µM [2, 16]: 0.7
fold induction at 50 µM [3, 17]: 0.7
fold induction at 50 µM [4, 18]: 2.4
fold induction at 50 µM [5, 19]: 0.5
fold induction at 50 µM [6, 20]: 0.4
fold induction at 50 µM [7, 21]: 0.7

Cc1nccn1CC1CCc2c(c3ccccc3n2C)C1=O (stereo not shown) [Ondansetron Hydrochloride]
fold induction at 50 µM [1, 22]: 1.1
fold induction at 50 µM [2, 23]: 0.6
fold induction at 50 µM [3, 24]: 0.6
fold induction at 50 µM [4, 25]: 0.7
fold induction at 50 µM [5, 26]: 0.7
fold induction at 50 µM [6, 27]: 0.8
fold induction at 50 µM [7, 28]: 0.7

CCOC(=O)c1ccc(N)cc1 [Benzocaine]
fold induction at 50 µM [1, 15]: 1
fold induction at 50 µM [2, 16]: 1.2
fold induction at 50 µM [3, 17]: 0.9
fold induction at 50 µM [4, 18]: 1.2
fold induction at 50 µM [5, 19]: 1.1
fold induction at 50 µM [6, 20]: 1.6
fold induction at 50 µM [7, 21]: 1.1

Cn1cnc([N+](=O)[O-])c1Sc1ncnc2nc[nH]c12 [Azathioprine]
fold induction at 50 µM [1, 29]: 0.8
fold induction at 50 µM [2, 30]: 0.7
fold induction at 50 µM [3, 31]: 0.5
fold induction at 50 µM [4, 32]: 0.7
fold induction at 50 µM [5, 33]: 0.6
fold induction at 50 µM [6, 34]: 0.8
fold induction at 50 µM [7, 35]: 0.6

CCn1cc(C(=O)O)c(=O)c2cnc(N3CCNCC3)nc21 [Pipemidic acid]
fold induction at 50 µM ([1]; planktonic, […], read-out: AK-based Prestwick Library Screening Results, E. faecium (fold increase in extracellular AK activity)): 1.1
fold induction at 50 µM ([2]; planktonic, […], read-out: AK-based Prestwick Library Screening Results, S. aureus (fold increase in extracellular AK activity)): 0.7
fold induction at 50 µM ([3]; planktonic, […], read-out: AK-based Prestwick Library Screening Results, K. pneumoniae (fold increase in extracellular AK activity)): 1.7
fold induction at 50 µM ([4]; planktonic, […], read-out: AK-based Prestwick Library Screening Results, A. baumannii (fold increase in extracellular AK activity)): 0.9
fold induction at 50 µM ([5]; planktonic, […], read-out: AK-based Prestwick Library Screening Results, P. aeruginosa (fold increase in extracellular AK activity)): 0.9
fold induction at 50 µM ([6]; planktonic, […], read-out: AK-based Prestwick Library Screening Results, E. cloacae (fold increase in extracellular AK activity)): 1
fold induction at 50 µM ([7]; planktonic, […], read-out: AK-based Prestwick Library Screening Results, E. coli (fold increase in extracellular AK activity)): 14.7

CN(C)c1ccc(O)c2c1C[C@H]1C[C@H]3[C@H](N(C)C)C(O)=C(C(N)=O)C(=O)[C@@]3(O)C(O)=C1C2=O [Minocycline hydrochloride]
fold induction at 50 µM ([1]; planktonic E. faecium, 384-well, cutoff for positive-scoring molecules 3-fold increase, read-out: AK-based Prestwick Library Screening Results: E. faecium (increase in extracellular AK activity)): 1.1
fold induction at 50 µM ([2]; planktonic S. aureus, 384-well, cutoff for positive-scoring molecules 3-fold increase, read-out: AK-based Prestwick Library Screening Results: S. aureus (increase in extracellular AK activity)): 6.9
fold induction at 50 µM ([3]; planktonic K. pneumoniae, 384-well, cutoff for positive-scoring molecules 3-fold increase, read-out: AK-based Prestwick Library Screening Results: K. pneumoniae (increase in extracellular AK activity)): 0.6
fold induction at 50 µM ([4]; planktonic A. baumannii, 384-well, cutoff for positive-scoring molecules 3-fold increase, read-out: AK-based Prestwick Library Screening Results: A. baumannii (increase in extracellular AK activity)): 3.9
fold induction at 50 µM ([5]; planktonic P. aeruginosa, 384-well, cutoff for positive-scoring molecules 3-fold increase, read-out: AK-based Prestwick Library Screening Results: P. aeruginosa (increase in extracellular AK activity)): 0.7
fold induction at 50 µM ([6]; planktonic E. cloacae, 384-well, cutoff for positive-scoring molecules 3-fold increase, read-out: AK-based Prestwick Library Screening Results: E. cloacae (increase in extracellular AK activity)): 0.9
fold induction at 50 µM ([7]; planktonic E. coli, 384-well, cutoff for positive-scoring molecules 3-fold increase, read-out: AK-based Prestwick Library Screening Results: E. coli (increase in extracellular AK activity)): 2.3

CN1CCC(=C2c3ccccc3CC(=O)c3sccc32)CC1 [Ketotifen fumarate]
fold induction at 50 µM [1, 8]: 1
fold induction at 50 µM [2, 9]: 1.1
fold induction at 50 µM [3, 10]: 0.9
fold induction at 50 µM [4, 11]: 1.1
fold induction at 50 µM [5, 12]: 1.1
fold induction at 50 µM [6, 13]: 1.7
fold induction at 50 µM [7, 14]: 1.3

COCCCC/C(=N\OCCN)c1ccc(C(F)(F)F)cc1 [Fluvoxamine maleate]
fold induction at 50 µM [1, 22]: 0.8
fold induction at 50 µM [2, 23]: 0.7
fold induction at 50 µM [3, 24]: 0.7
fold induction at 50 µM [4, 25]: 0.9
fold induction at 50 µM [5, 26]: 0.8
fold induction at 50 µM [6, 27]: 1.1
fold induction at 50 µM [7, 28]: 0.9

Clc1cccc(Cl)c1N=C1NCCN1 [Clonidine hydrochloride]
fold induction at 50 µM [1, 29]: 0.9
fold induction at 50 µM [2, 30]: 0.5
fold induction at 50 µM [3, 31]: 0.5
fold induction at 50 µM [4, 32]: 0.6
fold induction at 50 µM [5, 33]: 0.5
fold induction at 50 µM [6, 34]: 0.6
fold induction at 50 µM [7, 35]: 0.5
